Experimental data reported in US20250353835A1, “N-TETRAZOLYL ARYL UREA-BASED DERIVATIVES, PREPARATION METHOD THEREFOR, AND USE THEREOF” (Hangzhou Yirui Pharmaceutical Technology Co., Ltd, priority 2022, published 2025).

Columns and labels:
human B1R = target: T1, human B1R (Homo sapiens, UniProt P46663); experiment: FLIPR calcium ion flux assay, inhibitory activity against human B1R; assay type: cell-based; settings: HEK293 cells stably expressing human B1R; agonist [Lys-des-Arg9]-Bradykinin 4.6 nM (EC80); FLIPR method
T1 construct: host or cells: HEK293
T1 sequence (P46663 1-353): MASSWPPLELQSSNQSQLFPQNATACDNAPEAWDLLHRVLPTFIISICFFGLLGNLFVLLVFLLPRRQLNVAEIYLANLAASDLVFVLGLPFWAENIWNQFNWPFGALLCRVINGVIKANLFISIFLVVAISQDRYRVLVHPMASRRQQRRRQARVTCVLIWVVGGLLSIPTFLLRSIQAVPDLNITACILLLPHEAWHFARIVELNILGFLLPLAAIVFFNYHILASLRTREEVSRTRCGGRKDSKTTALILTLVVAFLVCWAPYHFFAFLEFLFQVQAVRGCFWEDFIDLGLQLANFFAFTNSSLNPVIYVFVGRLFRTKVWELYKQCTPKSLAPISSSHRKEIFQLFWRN
In short: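 HEK293 cells stably expressing human B1R, loaded with Fluo-4 Direct plus probenecid; compounds 9-point 1:5 series from 30 μM, duplicate, preincubated 10 min. Stimulation with [Lys-des-Arg9]-bradykinin at 4.6 nM final (EC80); peak fluorescence at 538 nm gave IC50.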

[1] = Ocular irritation after eye drops: ophthalmic observation and free protoporphyrin (FEP) in eye rinsing solution (ELISA); assay type: in vivo, SD rats; settings: 2% eye drops (10 μl) twice a day for 7 days
Experimental: 2.1 Experimental aminals: SPF grade male SD rats, weighed 180-200 g, were used and adaptively fed for one week.
2.3 Experimental animal grouping: the animals were randomly divided into 3 groups (6 rats per group) of a negative control group (normal saline), a Compound 71 group and a Compound 8 group.
2.4 Administration method and sampling: 2% Compound (10 μl) dissolved in normal saline (after filtration) was dropped into the surface of each rat's eye with a pipette for 10 s. The eye drop was applied twice a day for a total of 7 days. Samples were taken at 1 and 16 hours after the second administration on Day 7 of administration to determine the ocular distribution concentration of the drug.
[…] The rinsing solution was frozen at −80° C. for subsequent detection of irritant inflammatory response on the surface of the bulbus oculi.
2.7.2 Result of measurement of secretion of porphyrin: it was further determined whether inflammation or bleeding in the eyes occurred after eye drops by ELISA essay of free protoporphyrin (FEP) in erythrocytes. As indicated by the results, the level of FEP in the sample of eye rinsing solution was at a low concentration level for the rats in both the test drug group and the negative control group. There was no significant difference (P>0.05).

[2] = test system: rat model of acute lung injury; experiment: Rat model of LPS-induced acute lung injury; assay type: in vivo, Wistar rats; set-up: IL-6 (serum) / IL-6 (homogenate of lung tissue) / IL-6 (bronchoalveolar lavage fluid) / TNF-α (serum) / TNF-α (homogenate of lung tissue) / TNF-α (bronchoalveolar lavage fluid): unit not given here; settings: ELISA; for expression levels of IL-6 and TNF-α (in words): rat model of acute lung injury; for IL-6 (bronchoalveolar lavage fluid) / IL-6 (homogenate of lung tissue) / IL-6 (serum) / TNF-α (bronchoalveolar lavage fluid) / TNF-α (homogenate of lung tissue) / TNF-α (serum): test drug 30 mg/kg i.p. 2 h before and 1 h after LPS, 12 h after modeling
Experimental: 1. Experimental aminals: SPF-grade male Wistar rats, weighed 180-220 g, 6-8 weeks old.
3. Establishment of animal model: The rats were adaptively fed for one week. After the animals were anesthetized, 3 mg/kg LPS (B8) was injected intratracheally to prepare the rat model of acute lung injury.
4. […] At 2 hours before modeling (before tracheal injection of LPS), the test drug (30 mg/kg, the vehicle was 0.3% DMSO in saline) was intraperitoneally injected. At 1 hour after modeling, the test drug was administered once again (at the same dose). At 12 hours after modeling, the animals were sacrificed, and the samples were collected for the tests of various indexes. […]
5.2 ELISA method: 5 rats per group. The serum, alveolar lavage fluid, and tissue homogenate of one lung of each of the rats were subjected to ELISA assay to determine the TNF-α and IL-6 levels.

Structure (SMILES) | IC50 (human B1R) [µM] | FEP expression level in eye rinsing solution, Left eye ([1]; 1 h) [ng/mL] | FEP expression level in eye rinsing solution, Right eye ([1]; 1 h) [ng/mL] | FEP expression level in eye rinsing solution, Left eye ([1]; 16 h) [ng/mL] | FEP expression level in eye rinsing solution, Right eye ([1]; 16 h) [ng/mL] | expression levels of IL-6 and TNF-α (in words) [2] | IL-6 (bronchoalveolar lavage fluid) [2] | IL-6 (homogenate of lung tissue) [2] | IL-6 (serum) [2] | TNF-α (bronchoalveolar lavage fluid) [2] | TNF-α (homogenate of lung tissue) [2] | TNF-α (serum) [2]
CCOc1ccc(-c2c(F)cc(NC(=O)N3CCC(C(C)(C)C)CC3)cc2-c2nn[nH]n2)cn1 [Compound 8, 4-(tert-butyl)-N-(4-(6-ethoxypyrid-3-yl)-3-fluoro-5-(2H-tetrazol-5-yl)phenyl)piperidine-1-carboxamide] | 0.0149 | 1.53 ± 0.03 | 1.45 ± 0.02 | 1.57 ± 0.08 | 1.57 ± 0.06 | effectively reduce | 171.55 ± 81.93 | 250.10 ± 70.26 | 470.76 ± 151.60 | 26.72 ± 10.35 | 35.74 ± 11.82 | 94.89 ± 28.07
CCOc1ccc(-c2ccc(NC(=O)N[C@H]3CC[C@H](C)CC3)cc2-c2nn[nH]n2)cn1 [Compound 71, 1-(4-(6-ethoxypyrid-3-yl)-3-(2H-tetrazol-5-yl)phenyl)-3-((trans)-4-methylcyclohexyl)urea] | 0.0661 | 1.50 ± 0.02 | 1.54 ± 0.08 | 1.61 ± 0.06 | 1.55 ± 0.09 | effectively reduce | 184.29 ± 75.57 | 236.26 ± 84.91 | 473.14 ± 134.88 | 25.73 ± 11.35 | 37.03 ± 10.88 | 101.63 ± 37.40
